Test results from US20090181898A1, “ABUSE-RESISTANT A[…]” (SHIRE LLC, priority 2002, published 2009).
Marks after values point to notes of the source that are not given here.

Columns and labels:
[1] = Oral bioavailability at escalating doses (LC/MS/MS); conditions: rat; for AUC0-8 of d-amphetamine / AUCinf of d-amphetamine / F of d-amphetamine / Tmax of d-amphetamine / Cmax of d-amphetamine / AUCinf alt. calc. of d-amphetamine: oral; for Cmax of d-amphetamine: LC/MS/MS; for AUCinf alt. calc. of d-amphetamine: WinNonlin, in ng·h/mL
[2] = Intranasal bioavailability (LC/MS/MS); conditions: rat, intranasal, 3 mg/kg
stimulant abusers = test: Abuse liability of intravenous L-lysine-d-amphetamine in stimulant abusers; conditions: d-amphetamine 20 mg
anesthetized dog = test: Cardiovascular effects following intravenous injection in the anesthetized dog
rats [3] = test: Locomotor activity after intravenous administration; format: in vivo, Sprague-Dawley rats; conditions: rat, 1.0 mg/kg
rats [4] = test: Locomotor activity after intranasal administration with and without CMC; format: in vivo, Sprague-Dawley rats; conditions: rats, intranasal 1.0 mg/kg, 1 h
Text: The CMC drug mixtures were suspended thoroughly before each dose was delivered.

rats [5] = test: Horizontal locomotor activity after oral administration; format: in vivo, Sprague-Dawley rats; design: Time of Peak (Counts per 0.2 h): unit not given here; conditions: rats, oral gavage 6 mg/kg
[6] = IV, L-lysine-d-amphetamine 50 mg

d-amphetamine
AUC (0-1.5) of d-amphetamine ([1]; in vivo, po, 60 mg/kg): 14,281** ng · h/mL | AUC0-8 of d-amphetamine ([1]; 3 mg/kg): 885 ng·h/mL | AUCinf of d-amphetamine ([1]; 3 mg/kg): 921 ng·h/mL | F of d-amphetamine ([1]; 3 mg/kg): 84% | Tmax of d-amphetamine ([1]; 3 mg/kg): 90 min | Cmax of d-amphetamine ([1]; 3 mg/kg): 217.2 ng/mL | AUCinf alt. calc. of d-amphetamine ([1]; 3 mg/kg): 1,059 | AUC0-8 of d-amphetamine ([1]; 6 mg/kg): 1,319 ng · h/mL | AUCinf of d-amphetamine ([1]; 6 mg/kg): 1,362 ng · h/mL | F of d-amphetamine ([1]; 6 mg/kg): 62% | Tmax of d-amphetamine ([1]; 6 mg/kg): 15 min | Cmax of d-amphetamine ([1]; 6 mg/kg): 815.3 ng/mL | AUCinf alt. calc. of d-amphetamine ([1]; 6 mg/kg): 1429 | AUC0-8 of d-amphetamine ([1]; 12 mg/kg): 4,252 ng · h/mL | AUCinf of d-amphetamine ([1]; 12 mg/kg): 4,428 ng · h/mL | F of d-amphetamine ([1]; 12 mg/kg): 101% | Tmax of d-amphetamine ([1]; 12 mg/kg): 15 min | Cmax of d-amphetamine ([1]; 12 mg/kg): 1,533.1 ng/mL | AUCinf alt. calc. of d-amphetamine ([1]; 12 mg/kg): 4,636 | AUCinf of d-amphetamine ([1]; 60 mg/kg): 48,707 ng · h/mL | F of d-amphetamine ([1]; 60 mg/kg): 223% | Tmax of d-amphetamine ([1]; 60 mg/kg): 60 min | Cmax of d-amphetamine ([1]; 60 mg/kg): 13,735 ng/mL | AUCinf alt. calc. of d-amphetamine ([1]; 60 mg/kg): 48,707 | Tmax of d-amphetamine ([1]; […]): 30 min | AUC0-1 of d-amphetamine [2]: 1032 ng·h/mL | AUCinf of d-amphetamine [2]: 7291 ng·h/mL | Cmax of d-amphetamine ([2]; LC/MS/MS): 1962.9 ng/mL | AUCinf alt. calc. of d-amphetamine ([2]; in ng·h/mL): 1,267 | Time of mean peak plasma level of d-amphetamine (stimulant abusers; IV): 5 min | Time of mean peak responses (stimulant abusers; IV): 15 min | Mean maximum response on Subject Liking VAS vs placebo (stimulant abusers; [6]): significantly greater than placebo | Subjects (of 9) who would take the treatment again (stimulant abusers; [6]): Six | Mean peak plasma level of d-amphetamine (stimulant abusers; stimulant abusers, IV over 2 minutes, L-lysine-d-amphetamine 50 mg): 77.7 ng/mL | DAP % Change (anesthetized dog; iv 0.202 mg/kg, Time 0): 0% | LVP % Change (anesthetized dog; iv 0.202 mg/kg, Time 0): 0% | MAP % Change (anesthetized dog; iv 0.202 mg/kg, Time 0): 0% | MAP mean arterial pressure (anesthetized dog; iv 0.202 mg/kg, Time 0): 84 mmHg | SAP % Change (anesthetized dog; iv 0.202 mg/kg, Time 0): 0% | SAP systolic arterial pressure (anesthetized dog; iv 0.202 mg/kg, Time 0): 111 mmHg | DAP % Change (anesthetized dog; iv 0.202 mg/kg, Time 5): 117% | LVP % Change (anesthetized dog; iv 0.202 mg/kg, Time 5): 107% | MAP % Change (anesthetized dog; iv 0.202 mg/kg, Time 5): 109% | MAP mean arterial pressure (anesthetized dog; iv 0.202 mg/kg, Time 5): 176 mmHg | SAP % Change (anesthetized dog; iv 0.202 mg/kg, Time 5): 97% | SAP systolic arterial pressure (anesthetized dog; iv 0.202 mg/kg, Time 5): 218 mmHg | DAP % Change (anesthetized dog; iv 0.202 mg/kg, Time 15): 45% | LVP % Change (anesthetized dog; iv 0.202 mg/kg, Time 15): 52% | MAP % Change (anesthetized dog; iv 0.202 mg/kg, Time 15): 49% | MAP mean arterial pressure (anesthetized dog; iv 0.202 mg/kg, Time 15): 125 mmHg | SAP % Change (anesthetized dog; iv 0.202 mg/kg, Time 15): 52% | SAP systolic arterial pressure (anesthetized dog; iv 0.202 mg/kg, Time 15): 168 mmHg | DAP % Change (anesthetized dog; iv 0.202 mg/kg, Time 25): 30% | LVP % Change (anesthetized dog; iv 0.202 mg/kg, Time 25): 37% | MAP % Change (anesthetized dog; iv 0.202 mg/kg, Time 25): 31% | MAP mean arterial pressure (anesthetized dog; iv 0.202 mg/kg, Time 25): 110 mmHg | SAP % Change (anesthetized dog; iv 0.202 mg/kg, Time 25): 34% | SAP systolic arterial pressure (anesthetized dog; iv 0.202 mg/kg, Time 25): 148 mmHg | DAP % Change (anesthetized dog; iv 0.202 mg/kg, Time 30): 20% | LVP % Change (anesthetized dog; iv 0.202 mg/kg, Time 30): 30% | MAP % Change (anesthetized dog; iv 0.202 mg/kg, Time 30): 23% | MAP mean arterial pressure (anesthetized dog; iv 0.202 mg/kg, Time 30): 103 mmHg | SAP % Change (anesthetized dog; iv 0.202 mg/kg, Time 30): 26% | SAP systolic arterial pressure (anesthetized dog; iv 0.202 mg/kg, Time 30): 140 mmHg | DAP % Change (anesthetized dog; iv 0.404 mg/kg, Time 0): 0% | LVP % Change (anesthetized dog; iv 0.404 mg/kg, Time 0): 0% | MAP % Change (anesthetized dog; iv 0.404 mg/kg, Time 0): 0% | MAP mean arterial pressure (anesthetized dog; iv 0.404 mg/kg, Time 0): 101 mmHg | SAP % Change (anesthetized dog; iv 0.404 mg/kg, Time 0): 0% | SAP systolic arterial pressure (anesthetized dog; iv 0.404 mg/kg, Time 0): 139 mmHg | DAP % Change (anesthetized dog; iv 0.404 mg/kg, Time 5): 88% | LVP % Change (anesthetized dog; iv 0.404 mg/kg, Time 5): 79% | MAP % Change (anesthetized dog; iv 0.404 mg/kg, Time 5): 85% | MAP mean arterial pressure (anesthetized dog; iv 0.404 mg/kg, Time 5): 187 mmHg | SAP % Change (anesthetized dog; iv 0.404 mg/kg, Time 5): 73% | SAP systolic arterial pressure (anesthetized dog; iv 0.404 mg/kg, Time 5): 240 mmHg | DAP % Change (anesthetized dog; iv 0.404 mg/kg, Time 15): 44% | LVP % Change (anesthetized dog; iv 0.404 mg/kg, Time 15): 43% | MAP % Change (anesthetized dog; iv 0.404 mg/kg, Time 15): 43% | MAP mean arterial pressure (anesthetized dog; iv 0.404 mg/kg, Time 15): 145 mmHg | SAP % Change (anesthetized dog; iv 0.404 mg/kg, Time 15): 39% | SAP systolic arterial pressure (anesthetized dog; iv 0.404 mg/kg, Time 15): 193 mmHg | DAP % Change (anesthetized dog; iv 0.404 mg/kg, Time 25): 17% | LVP % Change (anesthetized dog; iv 0.404 mg/kg, Time 25): 26% | MAP % Change (anesthetized dog; iv 0.404 mg/kg, Time 25): 20% | MAP mean arterial pressure (anesthetized dog; iv 0.404 mg/kg, Time 25): 122 mmHg | SAP % Change (anesthetized dog; iv 0.404 mg/kg, Time 25): 19% | SAP systolic arterial pressure (anesthetized dog; iv 0.404 mg/kg, Time 25): 166 mmHg | DAP % Change (anesthetized dog; iv 0.404 mg/kg, Time 30): 11% | LVP % Change (anesthetized dog; iv 0.404 mg/kg, Time 30): 22% | MAP % Change (anesthetized dog; iv 0.404 mg/kg, Time 30): 16% | MAP mean arterial pressure (anesthetized dog; iv 0.404 mg/kg, Time 30): 117 mmHg | SAP % Change (anesthetized dog; iv 0.404 mg/kg, Time 30): 16% | SAP systolic arterial pressure (anesthetized dog; iv 0.404 mg/kg, Time 30): 160 mmHg | DAP % Change (anesthetized dog; iv 2.02 mg/kg, Time 0): 0% | LVP % Change (anesthetized dog; iv 2.02 mg/kg, Time 0): 0% | MAP % Change (anesthetized dog; iv 2.02 mg/kg, Time 0): 0% | MAP mean arterial pressure (anesthetized dog; iv 2.02 mg/kg, Time 0): 115 mmHg | SAP % Change (anesthetized dog; iv 2.02 mg/kg, Time 0): 0% | SAP systolic arterial pressure (anesthetized dog; iv 2.02 mg/kg, Time 0): 158 mmHg | DAP % Change (anesthetized dog; iv 2.02 mg/kg, Time 5): 48% | LVP % Change (anesthetized dog; iv 2.02 mg/kg, Time 5): 40% | MAP % Change (anesthetized dog; iv 2.02 mg/kg, Time 5): 47% | MAP mean arterial pressure (anesthetized dog; iv 2.02 mg/kg, Time 5): 169 mmHg | SAP % Change (anesthetized dog; iv 2.02 mg/kg, Time 5): 44% | SAP systolic arterial pressure (anesthetized dog; iv 2.02 mg/kg, Time 5): 228 mmHg | DAP % Change (anesthetized dog; iv 2.02 mg/kg, Time 15): 23% | LVP % Change (anesthetized dog; iv 2.02 mg/kg, Time 15): 24% | MAP % Change (anesthetized dog; iv 2.02 mg/kg, Time 15): 23% | MAP mean arterial pressure (anesthetized dog; iv 2.02 mg/kg, Time 15): 142 mmHg | SAP % Change (anesthetized dog; iv 2.02 mg/kg, Time 15): 24% | SAP systolic arterial pressure (anesthetized dog; iv 2.02 mg/kg, Time 15): 196 mmHg | DAP % Change (anesthetized dog; iv 2.02 mg/kg, Time 25): 17% | LVP % Change (anesthetized dog; iv 2.02 mg/kg, Time 25): 19% | MAP % Change (anesthetized dog; iv 2.02 mg/kg, Time 25): 17% | MAP mean arterial pressure (anesthetized dog; iv 2.02 mg/kg, Time 25): 135 mmHg | SAP % Change (anesthetized dog; iv 2.02 mg/kg, Time 25): 20% | SAP systolic arterial pressure (anesthetized dog; iv 2.02 mg/kg, Time 25): 189 mmHg | DAP % Change (anesthetized dog; iv 2.02 mg/kg, Time 30): 13% | LVP % Change (anesthetized dog; iv 2.02 mg/kg, Time 30): 16% | MAP % Change (anesthetized dog; iv 2.02 mg/kg, Time 30): 12% | MAP mean arterial pressure (anesthetized dog; iv 2.02 mg/kg, Time 30): 129 mmHg | SAP % Change (anesthetized dog; iv 2.02 mg/kg, Time 30): 16% | SAP systolic arterial pressure (anesthetized dog; iv 2.02 mg/kg, Time 30): 183 mmHg | Total Activity Counts (3 h) (rats [3]): 1659 | Activity above baseline, Percent Amp (rats [3]; 3 h): 100% | Total Activity Counts Above Baseline (rats [3]; 3 h): 1355 | Total Activity Counts (1 h) (rats [4]): 858 | Total Activity Counts Above Baseline (rats [4]): 686 | Peak of activity (Counts per 0.2 h) (rats [5]; 5 h experiment): 291 Counts per 0.2 h | Time of Last Count Above 200 per 0.2 h (rats [5]; 5 h experiment): 2.6 h | Time of Peak (Counts per 0.2 h) (rats [5]; 5 h experiment): 0.6 | Total Activity Counts (rats [5]; 5 h experiment): 515 | Total Activity Counts Above Baseline (rats [5]; 5 h experiment): 0 | Peak of activity (Counts per 0.2 h) (rats [5]; 12 h experiment): 223 Counts per 0.2 h | Time of Last Count Above 200 per 0.2 h (rats [5]; 12 h experiment): 6.4 h | Time of Peak (Counts per 0.2 h) (rats [5]; 12 h experiment): 0.6 | Total Activity Counts (rats [5]; 12 h experiment): 6622 | Total Activity Counts Above Baseline (rats [5]; 12 h experiment): 5686
